Experiments:
Type in all cases: in vivo
[1] = Flavor evaluation, tasted in water; conditions: tasted in water at 10 ppm
Description: Based on this flavor evaluation, it is indicative that the Structure I and Structure II of our invention are useful for augmenting, enhancing or imparting a taste or cooling or refreshing effect in or to a cosmetic, skin care product, lip gloss, hair care product, cologne, shaving balm, after-shave lotion, dairy product, fruit ice preparation, confectionery, mouth and throat lozenges, cough mixtures, decongestants, antacids, oral analgesics or other medicinal products, chewing gum, candy (including hard candy and soft candy), fondants, toothpaste, mouthwashes, mineral water, alcoholic beverage, non-alcoholic beverage, powdered beverage, or other foodstuff as a result of adding to a cosmetic, skin care product, lip gloss, hair care product, cologne, shaving balm, after-shave lotion, dairy product, fruit ice preparation, confectionery, lozenges, cough mixtures, decongestants, antacids, oral analgesics or other medicinal product, chewing gum, candy, fondants, toothpaste, mouthwashes, mineral water, alcoholic beverage, non-alcoholic beverage, powdered beverage, or other foodstuff, a taste or cooling or refreshing effect augmenting, enhancing or imparting quantity and concentration of Structure I and Structure II.

[2] = Evaluation of cooler mixed with fondant
Description: In this example, the Structure I and II were mixed with a fondant, commercially available from Confectionary House, Troy, N.Y., at levels listed in Table 1.

[3] = Chewing gum profiled by trained descriptive analysis panel; conditions: level 0.20%
Protocol: The following gum base formulation was prepared: […]
The orange flavor is commercially available from IFF. The gum base, Hades-T is commercially available from Cafosa Gum, Barcelona Spain.
Structure I and II by itself at levels detailed in the Tables below was blended with the gum base in a Sigma mixer. The resultant chewing gum blend was then manufactured into strips 1 inch in width and 0.1 inches in thickness. These strips were cut into lengths of 3 inches each.
Samples were profiled by a highly trained descriptive analysis panel. The ballot consisted of the following terms: Total impact, total mint, cooling-mouth closed, cooling-breath in, nasal cooling—breathe in, throat irritation, bitterness, tongue irritation, numbing. Each attribute was rated at discrete time points including 1 minute, 3 minutes, 5 minutes, 10 minutes, 20 minutes, and 30 minutes.

SMILES	Taste description (cooling) [1]	COMMENTS (cooling evaluation in fondant) ([2]; 50 ppm)	COMMENTS (cooling evaluation in fondant) ([2]; 200 ppm)	Time and Evaluation (cooling in chewing gum) ([3]; 0-1 min)	Time and Evaluation (cooling in chewing gum) ([3]; 1-3 min)	Time and Evaluation (cooling in chewing gum) ([3]; 3-5 min)	Time and Evaluation (cooling in chewing gum) ([3]; 5-10 min)	Time and Evaluation (cooling in chewing gum) ([3]; 10-20 min)	Time and Evaluation (cooling in chewing gum) ([3]; 20-30 min)
CC(C)(C)C1(C(=O)NC2CC2)CCCCC1 [Structure I, 1-tert-butyl-N-cyclopropylcyclohexanecarboxamide]	gradual onset cooling	Slight irritation in rear of throat, slight cooling	Moderate cooling, consistent, and slight tingle.						
COCCNC(=O)C1(C(C)(C)C)CCCCC1 [Structure II, 1-tert-butyl-N-[2-methoxy-ethyl]cyclohexanecarboxamide]	wet cardboard, slightly cooling	Slight bitterness, very little cooling.	Good Cooling low to moderate, slight throat	no perceivable cooling slightly bitter,	Slight cooling with slight tingle on tongue	full mouth cooling not very intense, slight	slight residual cooling very weak	still slight cooling, slight tingle	cooling diminished very weak, very mild

Source: patent US20110070171A1, “1-tert-Butylcyclohexanecarboxamide and uses thereof as cooling compounds” (priority 2009, published 2011)
